What was measured:
PPARγ = target: T1, PPARγ (Homo sapiens, UniProt P37231); assay: PPARγ agonist reporter assay; format: cell-based; conditions: 10 µM MI891
T1 construct: expressed in transfected cells
Description: (§1) For the farnesoid X receptor (FXR) luciferase gene reporter assay, the full-length expression vector was paired with pFXRE-luc luciferase construct. The p1A1-luc construct was used in the aryl hydrocarbon receptor (AhR) assays with pRL-TK for normalization. Gal4-LXR-α/β, and Gal4-PPAR-γ constructs were used with the pGAL4 UAS-luc construct. For the VDR assay, expression vector pSG5-hVDR together with pVDRE-luc constructs was used. Firefly and Renilla luciferase activities were analyzed using a Dual reporter assay (Promega). For the nuclear receptor assays, prototype ligands were used at the following concentrations: Calcitriol for VDR (100 nM), GW3965 for LXRα and LXRβ (10 μM), 6-OCA for FXR (1 μM), fenofibrate for PPARα (10 μM), estradiol for ERα and β (10 μM), rosiglitazone for PPARγ (10 μM), 3-MC for AhR (5 μM), and TCPOBOP for mCAR (10 μM). Detailed descriptions and protocols are detailed in our recent publication. , […]
(§2) hydrophobic interactions. (F) Superimposed diagram of PXR bound with agonist (SJPYT-328) and antagonists (MI891 and SJPYT-331) to differentiate the agonist and antagonist interactions with helix 12 (H12). The interaction of the agonist with PXR residue (L428) is circled. (G) Extended nuclear receptor selectivity profile. […]

[1] = Microsomal stability, human microsomes; format: in vitro ADME; conditions: liver microsomes; 0.5 mg/mL human microsomes, 5 μM, up to 45 min; read-out: Microsomal stability, t1/2 (min), human
Description: The protocols and reagents for the plasma protein binding assay and metabolic stability testing in human and mouse liver microsomes are detailed in our previous report. […] The stability of compounds was tested in human and mouse microsomes (ThermoFisher Scientific). Compounds were tested in triplicate with or without NADPH wells as a negative control for cytochrome P450 metabolism. […] Each assay included a substrate with known activity as a positive control. Time points were analyzed by LC/MS/MS. The peak area for the parent compound is compared to the time zero sample in order to assess the amount of remaining compound.

[2] = tested on: primary human hepatocytes; assay: RT-qPCR gene expression in primary human hepatocytes; format: cell-based; conditions: PHH, MI891 5 μM
Description: Cryopreserved human hepatocytes from three donors were purchased from BioIVT (Westbury, New York, USA). The characteristics of the donors were as follows: donor 1, donor 2, donor 3 - person. PHHs were seeded in PHH medium supplemented with 10% fetal bovine serum at a density of 350,000 cells per well of rat tail collagen type I-coated 24-well plates (catalog number 354408, Corning, New York, USA). Cultivation medium was replaced with serum-free PHH medium 2 h later. […] Rifampicin, SPA70, and dimethyl sulfoxide (DMSO) were all purchased from Sigma-Aldrich (St. Louis, Missouri, USA, now part of Merck).
RT-qPCR was utilized to investigate gene expression in HepaRG and PHH. Total RNA was extracted from these cells using the phenol–chloroform method. The concentration of the isolated RNA was then measured using a Nanodrop 1000 spectro-photometer (Thermo Fisher Scientific).
Following RNA isolation, reverse transcription was performed to convert RNA into complementary DNA (cDNA). This step was carried out using the High-capacity cDNA reverse transcription kit (Cat. No. 4374966, ThermoFisher Scientific). The resulting cDNA served as the template for subsequent qPCR reactions.
The qPCR reactions were conducted on the QuantStudio 6 Flex Real-Time PCR System (ThermoFisher Scientific, Waltham, Mas-sachusetts). For these reactions, TaqMan Universal master mix II (Cat. No. 4440047, ThermoFisher Scientific) and TaqMan assays (FAM) utilized in this study are detailed in the Supporting Information. To quantify gene expression, the cycle threshold (Ct) values of the target genes were normalized to the Ct values of reference genes HPRT1 or GAPDH (HepaRG) or TBP (PHH). The normalized values were then expressed as fold changes (2−ΔΔCt) relative to the DMSO control at the specified time points, with the control set as 1.

human CAR LBD = target: T2, human CAR LBD (Homo sapiens, UniProt Q14994); assay: LanthaScreen TR-FRET CAR Coactivator assay; format: biochemical; conditions: nb = no binding
T2 sequence (Q14994 103-352): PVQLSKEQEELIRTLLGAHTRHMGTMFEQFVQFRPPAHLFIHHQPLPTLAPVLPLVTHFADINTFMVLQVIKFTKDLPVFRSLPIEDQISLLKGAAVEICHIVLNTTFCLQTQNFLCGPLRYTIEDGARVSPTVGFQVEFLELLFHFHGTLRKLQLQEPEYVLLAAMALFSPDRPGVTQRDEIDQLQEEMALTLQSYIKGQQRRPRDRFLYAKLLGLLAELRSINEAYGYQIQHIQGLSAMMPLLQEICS
Description: (§3) We utilized the LanthaScreen TR-FRET CAR Coactivator Binding Assay Kit, goat (Thermo Fisher Scientific, Cat. No. PV4836), which includes GST-tagged human CAR LBD and a fluorescein-labeled PGC1α coactivator peptide. The assay was performed with slight modifications to the manufacturer’s protocol, as previously reported. […] The interaction with the PXR ligand-binding domain (LBD) was assessed using the LanthaScreen TR-FRET PXR Competitive Binding Assay (Thermo Fisher Scientific, PV4839), as previously described. This assay quantifies the ability of test compounds to displace a fluorescent PXR ligand from the receptor. Fluorescence readings were taken on a Synergy 2 Multi-Mode Microplate Reader (BioTek, Winooski, VT). The half-maximal inhibitory concentration (IC50) for PXR LBD was calculated from at least eight data points using GraphPad Prism software.

ERα/β = ERα/β agonist reporter assay; format: cell-based; conditions: 10 µM MI891
Description: as §1, §2

PXR LBD = target: T3, PXR LBD (Homo sapiens, UniProt O75469); assay: LanthaScreen TR-FRET PXR competitive binding assay; conditions: recombinant PXR LBD, competition with tracer
T3 construct: purchased Thermo Fisher Scientific PV4839
Description: as §3

T3 sequence (O75469 146-433 limits assumed): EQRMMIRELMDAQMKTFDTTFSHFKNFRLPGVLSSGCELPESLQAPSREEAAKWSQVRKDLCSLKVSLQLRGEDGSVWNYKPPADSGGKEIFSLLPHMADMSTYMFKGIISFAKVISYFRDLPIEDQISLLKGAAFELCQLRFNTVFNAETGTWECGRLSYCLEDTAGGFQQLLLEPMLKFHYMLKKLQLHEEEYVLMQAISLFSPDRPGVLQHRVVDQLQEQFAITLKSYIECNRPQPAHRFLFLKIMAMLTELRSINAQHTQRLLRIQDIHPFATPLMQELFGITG
T1 sequence (P37231 238-505 limits assumed, species assumed): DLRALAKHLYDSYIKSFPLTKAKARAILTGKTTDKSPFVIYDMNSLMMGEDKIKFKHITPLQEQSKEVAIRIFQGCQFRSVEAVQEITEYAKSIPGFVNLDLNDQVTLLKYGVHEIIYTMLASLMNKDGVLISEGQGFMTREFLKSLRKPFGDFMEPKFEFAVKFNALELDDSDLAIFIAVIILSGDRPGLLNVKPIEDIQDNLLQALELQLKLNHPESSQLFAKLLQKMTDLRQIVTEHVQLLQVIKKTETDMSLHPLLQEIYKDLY

agonistic effect on PPARγ (PPARγ)	half-life at 5 μM [1] [min]	CYP7A1, HMGCS2, PCK1 and MKI67 mRNA ([2]; in the presence and absence of rifampicin)	CYP2B6 mRNA ([2]; all donors)	CAR TR-FRET (EC50, μM) (human CAR LBD; listed as 11 (MI891))	CAR TR-FRET (EC50, μM) (human CAR LBD; listed as MI891)	binding to PXR LBD compared to MI1011B and SR12813 (PXR LBD)	Molecule	CYP3A4 mRNA expression ([2]; three donors, rifampicin 10 μM, 48 h)	agonistic effect on ERα/β (ERα/β)
no agonistic effects	> 45	significant downregulation	may slightly upregulate	nb	no binding activity		NC(=O)c1cc(Cn2cc(-c3c(-c4ccc(Cl)cc4)nc4c(F)cc(F)cn34)nn2)ccc1Cl [Compound 11, 2-Chloro-5-((4-(2-(4-chlorophenyl)-6,8-difluoroimidazo[1,2-a]pyridin-3-yl)-1H-1,2,3-triazol-1-yl)methyl)-benzamide]	suppressed the expression of CYP3A4 mRNA and attenuated its induction by rifampicin	no agonistic effects
						weaker binding to PXR LBD	N-(4-((1-(2,5-dimethoxyphenyl)-5-methyl-1H-1,2,3-triazol-4-yl)sulfonyl)phenyl)-3-(2-(2-(2-(4-(((2-(2,6-dioxopiperidin-3-yl)-1,3-dioxoisoindolin-4-yl)amino)methyl)-1H-1,2,3-triazol-1-yl)ethoxy)ethoxy)ethoxy)propenamide [Compound 36]		

From article PMC12305494, “Discovery of PXR Antagonist MI891 and PXR Degrader MI1013 and Their Roles in Hepatic Gene Regulation” (Journal of Medicinal Chemistry, 2025)
